Measurements as given in PubChem BioAssay (NCI).
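Exposure lasted 48 hours, with cells grown in 96-well plates and compounds tested at five concentrations. Abbreviation: GI50, concentration required for 50% inhibition of growth. TGI is the concentration that stops growth completely.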

Assays:
Assay in all cases: DTP human tumour cell line panel, 48 h
[1] = test system: RXF 393 renal
[2] = test system: COLO 205 colon
[3] = test system: A498 renal
[4] = test system: LOX IMVI melanoma
[5] = test system: NCI-H23 lung
[6] = test system: NCI/ADR-RES ovarian
[7] = test system: SF-268 CNS
[8] = test system: SK-MEL-5 melanoma
[9] = test system: UO-31 renal
[10] = test system: SK-MEL-28 melanoma

SMILES	TGI [1]	TGI [2]	TGI [3]	TGI [4]	TGI [5]	TGI [6]	TGI [7]	TGI [8]	GI50 [9]	TGI [9]	GI50 [10]	TGI [10]	GI50 [1]	GI50 [2]	GI50 [3]	GI50 [4]	GI50 [5]	GI50 [6]	GI50 [7]	GI50 [8]
CCCC(=O)Nc1cc(/C=C/C(=O)N2CC(CCl)c3c2cc(OC(C)=O)c2[nH]cc(C)c32)n(C)c1 (centres undefined)	< 2.5e-05 µM	4.32e-05 µM	0.000667 µM	> 0.25 µM	8.72e-05 µM	0.0121 µM	< 2.5e-05 µM	5.84e-05 µM	–	–	–	–	–	–	–	–	–	–	–	–
COc1ccc(-n2nc(C(=O)c3ccccc3)c3nn4c(=O)cc(-c5ccccc5)nc4nc32)cc1	> 100 µM	> 100 µM	> 100 µM	> 100 µM	> 100 µM	> 100 µM	> 100 µM	> 100 µM	28.6 µM	> 100 µM	38.3 µM	> 100 µM	> 100 µM	29.1 µM	66.2 µM	34.5 µM	67.2 µM	34.5 µM	39.1 µM	41.7 µM
C#C[C@]1(O)[C@@H](CO)O[C@@H](n2ccc(=O)[nH]c2=O)[C@@H]1O	–	0.173 µM	> 100 µM	1.57 µM	7.37 µM	–	–	13 µM	–	0.183 µM	–	31.3 µM	–	–	–	–	–	–	–	–
COc1ccc(-n2nnc3c(C#N)c(C)c(-c4ccccc4)n3c2=O)cc1	> 21.4 µM	10.6 µM	> 100 µM	> 100 µM	> 100 µM	21.1 µM	> 100 µM	17 µM	–	> 100 µM	–	> 100 µM	–	–	–	–	–	–	–	–
O=C1/C(=C/c2ccc([N+](=O)[O-])cc2)Sc2scc(-c3cccc([N+](=O)[O-])c3)[n+]21	7.94 µM	3.69 µM	7.98 µM	8.03 µM	42 µM	26.3 µM	7.75 µM	18.6 µM	–	22 µM	–	–	–	–	–	–	–	–	–	–
Cc1ccc([N+](=O)[O-])cc1S(=O)(=O)Nc1ccc(C2=NN(C(=O)c3ccccc3)C(c3ccccc3O)C2)cc1 (centres undefined)	31.9 µM	31.9 µM	60.6 µM	45.6 µM	35.5 µM	> 100 µM	45.9 µM	34.7 µM	–	76.6 µM	–	> 100 µM	–	–	–	–	–	–	–	–
Oc1ccc(Cl)cc1C1=Nn2c(COc3ccc4c(c3)CCCC4)nnc2SC1	32.9 µM	31.3 µM	11.8 µM	29.3 µM	26.9 µM	41.2 µM	35 µM	19 µM	–	23.4 µM	–	14.4 µM	–	–	–	–	–	–	–	–
C=C(CN(C)C)C(=O)c1ccccc1Cl	29.6 µM	29.3 µM	> 96 µM	33.4 µM	54.6 µM	–	42.7 µM	57.8 µM	–	33.6 µM	–	19.4 µM	–	–	–	–	–	–	–	–
CC(C)(C)COS(=O)OCC(C)(C)C	> 100 µM	> 100 µM	> 100 µM	> 100 µM	> 100 µM	> 100 µM	> 100 µM	> 100 µM	–	> 100 µM	–	> 100 µM	–	–	–	–	–	–	–	–
CN(CCc1ccccn1)c1ccc2c(c1)Cc1ccccc1-2	> 100 µM	41.4 µM	50.6 µM	> 100 µM	> 100 µM	> 100 µM	> 100 µM	31.3 µM	–	> 100 µM	–	> 100 µM	–	–	–	–	–	–	–	–
OC1CCSc2ccccc21 (centres undefined)	> 100 µM	> 100 µM	–	> 100 µM	> 100 µM	–	> 100 µM	> 100 µM	–	> 100 µM	–	> 100 µM	–	–	–	–	–	–	–	–
CCOC(=O)c1cccc(N=Nc2ncc(/C=C/C(=O)OC)[nH]2)c1	> 100 µM	49 µM	67.8 µM	51 µM	> 100 µM	> 100 µM	> 100 µM	30.1 µM	–	72 µM	–	> 100 µM	–	–	–	–	–	–	–	–
NC(N)=N/N=C/c1c(-c2cccs2)nc2n1CCS2	> 100 µM	40.4 µM	> 100 µM	–	–	–	53.3 µM	29.1 µM	70.4 µM	> 100 µM	–	–	77.7 µM	18.1 µM	5.65 µM	–	–	–	25.5 µM	15.6 µM
CC(C)C(=O)CC(c1ccc(Br)cc1)N1N=C(C(C)C)CC1c1ccc(Br)cc1 (centres undefined)	> 100 µM	> 100 µM	–	> 100 µM	> 100 µM	–	> 100 µM	–	–	> 100 µM	–	> 100 µM	–	–	–	–	–	–	–	–
CS(=O)(=O)Nc1cccc(-c2ccc3ncnc(Nc4cncc(Cl)c4)c3c2)c1	4.41 µM	–	–	–	16.9 µM	> 100 µM	> 100 µM	3.74 µM	–	–	–	–	1.43 µM	–	–	–	2.51 µM	13.7 µM	2.26 µM	1.75 µM
O=S(C(c1ccccc1)=P(c1ccccc1)(c1ccccc1)c1ccccc1)c1ccc(Cl)cc1 (centres undefined)	95.1 µM	–	37.1 µM	> 100 µM	> 100 µM	> 100 µM	87.9 µM	27 µM	–	> 100 µM	–	> 100 µM	–	–	–	–	–	–	–	–
O=C1CNc2cc(N3CCCCC3)ccc2N1	–	–	–	–	> 100 µM	> 100 µM	–	> 100 µM	–	> 100 µM	–	> 100 µM	–	–	–	–	–	–	–	–
CCOC(=O)/C=C/C1=C(Br)[C@@]2(C)CC[C@@H]3c4ccc(O)cc4CC[C@H]3[C@@H]2C1	29.5 µM	32.2 µM	32 µM	19.6 µM	26.6 µM	27.9 µM	33 µM	26.8 µM	–	30.4 µM	–	30 µM	–	–	–	–	–	–	–	–
